Test results: PMC12606464, “Investigating NFE2L1 activators for targeted protein aggregate clearance: a follow-up study” (RSC Medicinal Chemistry, 2025)

System: proteasome subunit gene expression (PSMC4, PSMB7, PSMD12)
Experiment: RT-qPCR of proteasome genes in NFE2L1/NFE2L2-knockdown HEK293 cells
Assay type: cell-based, human
Conditions: for NFE2L1 mRNA, mean diff between siRNA treatments, log2 / NFE2L2 mRNA, mean diff between siRNA treatments, log2 / PSMB7 mRNA, mean diff between siRNA treatments, log2 / PSMD12 mRNA, mean diff between siRNA treatments, log2: RUN89-treated
Method: Fig. 1 (A) Targeted library screening of RUN compounds using the 3×PSMA4-ARE-LUC dual reporter assay in HEK293 cells. Cells were exposed to RUN compounds (5 μM) for 16 hours, and luciferase activity was measured. Data are presented as the mean ± SD from three independent experiments (n = 3). Results are shown as a fold change in luminescence relative to DMSO-treated cells. Selected hit compounds are highlighted in distinct colours. (B) RUN-89 specifically activates the NFE2L1 pathway. The DDI2 knockout (KO) and parental (WT) HCT116 cells were transfected with the 3×PSMA4-ARE-LUC reporter and treated with 0.5 μM bortezomib (BTZ) and 5 μM RUN-89 for 16 hours. Data are presented as the Geomean ± GeoSD of three independent experiments (n = 3). Statistical analysis was performed on log2-transformed values using two-way repeated-measures ANOVA followed by Šídak's multiple comparison test. (C) RUN-89 selectively triggers downstream signaling events associated with NFE2L1 gene expression. HEK293 cells were transfected with lipid nanoparticles (LNPs) carrying siRNAs targeting NFE2L1 or NFE2L2. LNPs formulated with non-targeting siRNA served as a negative control. Following 24 hours of incubation, cells were treated with 7.5 μM RUN-89 or DMSO (vehicle) for an additional 16 hours. Expression of the proteasomal subunit gene PSMC4 was then quantified by RT-qPCR. Data are shown as the Geomean ± GeoSD from three independent biological replicates (n = 3). Log2-transformed data were analyzed using two-way repeated-measures ANOVA with the Geisser–Greenhouse correction, followed by Tukey's multiple comparison test with individual variances computed for each comparison. Additional results for NFE2L1, NFE2L2, PSMB7, and PSMD12 are presented in SI Fig. S10.
To further confirm that RUN-89 acts through NFE2L1-dependent signalling, we investigated the effect of selective knockdown of NFE2L1 and NFE2L2 on the induction of proteasomal genes. HEK293 cells (from ATCC CCL-247 (RRID:CVCL_0291)) were transfected with lipid nanoparticles (LNPs) carrying siRNAs targeting either NFE2L1 or NFE2L2, while non-targeting siRNA was used as a control. After treatment with RUN-89, transcript levels of several proteasome subunit genes were analyzed by RT-qPCR.
Figure S10: Effects of RUN-89 on NFE2L1- and NFE2L2-associated target genes following […]
HEK293 cells were transfected with lipid nanoparticles (LNPs) containing siRNAs against NFE2L1, NFE2L2, or a non-targeting control siRNA. After 24 hours, cells were treated with 7.5 μM RUN-89 or DMSO (vehicle) for an additional 16 h, and transcript levels of NFE2L1, NFE2L2, PSMB4, PSMB7, and PSMD12 were quantified by RT -qPCR. Data are presented as mean ± SD from three independent biological replicates (n = 3). Log₂ -transformed data were analyzed by two -way repeated-measures ANOVA with Geisser –Greenhouse correction, followed by Tukey’s multiple compa rison test with individual variances computed for each comparison.
2.16 Analysis of proteasome genes expression in NFE2L1/NFE2L2-
The corresponding HEK293 cells were seeded into 24-well culture plates (120,000 cells/well) and allowed to adhere overnight under standard culture conditions. On the following day, cells were transfected with siRNAs targeting NFE2L1, NFE2L2, or a non-targeting negative control siRNA (Table S2). Transfections were performed using a lipid nanoparticle (LNP) delivery system assembled as previously described,(7) with a final siRNA concentration of ~0.2 nmol per well. After 24 h of incubation, cells were treated with 7.5 µM […] or DMSO (vehicle control) for 16 h. Total RNA was then extracted, converted into cDNA, and analyzed by RT-qPCR using primers targeting proteasome genes (listed in Section 2.5, Quantitative RT-PCR, Table S1). Expression levels were normalized to RPLP0 mRNA. The […]

[1] = NFE2L1 siRNA vs. NFE2L1 + L2 siRNA
[2] = NFE2L2 siRNA vs. NFE2L1 + L2 siRNA
[3] = Non transfected vs. NFE2L1 + L2 siRNA
[4] = Non transfected vs. NFE2L1 siRNA
[5] = Non transfected vs. NFE2L2 siRNA
[6] = Non transfected vs. Scramble control siRNA
[7] = Scramble control siRNA vs. NFE2L1 + L2 siRNA
[8] = Scramble control siRNA vs. NFE2L1 siRNA
[9] = Scramble control siRNA vs. NFE2L2 siRNA

Q: What does the source list for `COc1ccc(/C=C2\CC(NC(=O)C3CCCC3)C/C(=C\c3ccc(OC)c(OC)c3)C2=O)cc1OC` (centres unmarked) [RUN-89]?
A: PSMC4 expression, mean log2, NFE2L1 + L2 siRNA (7.5 μM, 16 h, HEK293): 0.5367; PSMC4 expression, mean log2, NFE2L1 siRNA (7.5 μM, 16 h, HEK293): 0.5329; PSMC4 expression, mean log2, NFE2L2 siRNA (7.5 μM, 16 h, HEK293): 1.12; PSMC4 expression, mean log2, scramble control siRNA (7.5 μM, 16 h, HEK293): 1.335; PSMC4 expression, row mean of log2 values over all siRNA treatments (7.5 μM, 16 h, HEK293): 0.9981; PSMC4 expression, mean log2, non transfected (7.5 μM, 16 h, HEK293, no siRNA): 1.466; Induction of PSMC4 expression upon silencing of NFE2L1, but not NFE2L2 (HEK293, siRNA LNPs): markedly reduced; Mean diff, of log2-transformed values, DMSO vs. RUN89 (NFE2L1 + L2 siRNA): 0.1671; NFE2L1 mRNA, mean diff DMSO vs. RUN89, log2 (NFE2L1 + L2 siRNA): 0.4839; NFE2L1 mRNA, mean of log2-transformed values (NFE2L1 + L2 siRNA): -1.849; NFE2L2 mRNA, mean diff DMSO vs. RUN89, log2 (NFE2L1 + L2 siRNA): 0.1671; PSMB7 mRNA, mean diff DMSO vs. RUN89, log2 (NFE2L1 + L2 siRNA): -0.04295; PSMB7 mRNA, mean of log2-transformed values (NFE2L1 + L2 siRNA): -0.005215; PSMD12 mRNA, mean diff DMSO vs. RUN89, log2 (NFE2L1 + L2 siRNA): -1.247; PSMD12 mRNA, mean of log2-transformed values (NFE2L1 + L2 siRNA): 1.4; Mean diff, of log2-transformed values, DMSO vs. RUN89 (NFE2L1 siRNA): 0.3261; NFE2L1 mRNA, mean diff DMSO vs. RUN89, log2 (NFE2L1 siRNA): 0.5812; NFE2L1 mRNA, mean of log2-transformed values (NFE2L1 siRNA): -2.192; NFE2L2 mRNA, mean diff DMSO vs. RUN89, log2 (NFE2L1 siRNA): 0.3261; PSMB7 mRNA, mean diff DMSO vs. RUN89, log2 (NFE2L1 siRNA): 0.02314; PSMB7 mRNA, mean of log2-transformed values (NFE2L1 siRNA): -0.07162; PSMD12 mRNA, mean diff DMSO vs. RUN89, log2 (NFE2L1 siRNA): -1.239; PSMD12 mRNA, mean of log2-transformed values (NFE2L1 siRNA): 1.413; Mean diff, of log2-transformed values, DMSO vs. RUN89 (NFE2L2 siRNA): 0.07457; NFE2L1 mRNA, mean diff DMSO vs. RUN89, log2 (NFE2L2 siRNA): -0.06055; NFE2L1 mRNA, mean of log2-transformed values (NFE2L2 siRNA): -0.3257; NFE2L2 mRNA, mean diff DMSO vs. RUN89, log2 (NFE2L2 siRNA): 0.07457; PSMB7 mRNA, mean diff DMSO vs. RUN89, log2 (NFE2L2 siRNA): -0.4898; PSMB7 mRNA, mean of log2-transformed values (NFE2L2 siRNA): 0.4898; PSMD12 mRNA, mean diff DMSO vs. RUN89, log2 (NFE2L2 siRNA): -1.678; PSMD12 mRNA, mean of log2-transformed values (NFE2L2 siRNA): 1.979; Mean diff, of log2-transformed values, DMSO vs. RUN89 (Non transfected): -0.3265; NFE2L2 mRNA, mean diff DMSO vs. RUN89, log2 (Non transfected): -0.3265; PSMB7 mRNA, mean diff DMSO vs. RUN89, log2 (Non transfected): -0.7476; PSMB7 mRNA, mean of log2-transformed values (Non transfected): 0.7599; PSMD12 mRNA, mean diff DMSO vs. RUN89, log2 (Non transfected): -1.909; PSMD12 mRNA, mean of log2-transformed values (Non transfected): 2.076; NFE2L1 mRNA, mean diff between siRNA treatments, log2 [1]: 0.3437; NFE2L2 mRNA, mean diff between siRNA treatments, log2 [1]: 2.749; PSMB7 mRNA, mean diff between siRNA treatments, log2 [1]: -0.0664; PSMD12 mRNA, mean diff between siRNA treatments, log2 [1]: 0.01218; NFE2L1 mRNA, mean diff between siRNA treatments, log2 (NFE2L1 siRNA vs. NFE2L2 siRNA): 1.867; NFE2L2 mRNA, mean diff between siRNA treatments, log2 (NFE2L1 siRNA vs. NFE2L2 siRNA): 2.85; PSMB7 mRNA, mean diff between siRNA treatments, log2 (NFE2L1 siRNA vs. NFE2L2 siRNA): -0.5614; PSMD12 mRNA, mean diff between siRNA treatments, log2 (NFE2L1 siRNA vs. NFE2L2 siRNA): -0.5664; NFE2L1 mRNA, mean diff between siRNA treatments, log2 [2]: -1.523; NFE2L2 mRNA, mean diff between siRNA treatments, log2 [2]: -0.1013; PSMB7 mRNA, mean diff between siRNA treatments, log2 [2]: 0.495; PSMD12 mRNA, mean diff between siRNA treatments, log2 [2]: 0.5786; NFE2L1 mRNA, mean diff between siRNA treatments, log2 [3]: -2.639; NFE2L2 mRNA, mean diff between siRNA treatments, log2 [3]: 3.437; PSMB7 mRNA, mean diff between siRNA treatments, log2 [3]: 0.7651; PSMD12 mRNA, mean diff between siRNA treatments, log2 [3]: 0.6755; NFE2L1 mRNA, mean diff between siRNA treatments, log2 [4]: -2.982; NFE2L2 mRNA, mean diff between siRNA treatments, log2 [4]: 0.6883; PSMB7 mRNA, mean diff between siRNA treatments, log2 [4]: 0.8315; PSMD12 mRNA, mean diff between siRNA treatments, log2 [4]: 0.6633; NFE2L1 mRNA, mean diff between siRNA treatments, log2 [5]: -1.115; NFE2L2 mRNA, mean diff between siRNA treatments, log2 [5]: 3.539; PSMB7 mRNA, mean diff between siRNA treatments, log2 [5]: 0.27; PSMD12 mRNA, mean diff between siRNA treatments, log2 [5]: 0.09696; NFE2L2 mRNA, mean diff between siRNA treatments, log2 [6]: -0.01225; PSMB7 mRNA, mean diff between siRNA treatments, log2 [6]: 0.1431; PSMD12 mRNA, mean diff between siRNA treatments, log2 [6]: -0.01734; NFE2L1 mRNA, mean diff between siRNA treatments, log2 [7]: -2.465; NFE2L2 mRNA, mean diff between siRNA treatments, log2 [7]: 3.45; PSMB7 mRNA, mean diff between siRNA treatments, log2 [7]: 0.622; PSMD12 mRNA, mean diff between siRNA treatments, log2 [7]: 0.6929; NFE2L1 mRNA, mean diff between siRNA treatments, log2 [8]: -2.808; NFE2L2 mRNA, mean diff between siRNA treatments, log2 [8]: 0.7005; PSMB7 mRNA, mean diff between siRNA treatments, log2 [8]: 0.6884; PSMD12 mRNA, mean diff between siRNA treatments, log2 [8]: 0.6807; NFE2L1 mRNA, mean diff between siRNA treatments, log2 [9]: -0.9417; NFE2L2 mRNA, mean diff between siRNA treatments, log2 [9]: 3.551; PSMB7 mRNA, mean diff between siRNA treatments, log2 [9]: 0.127; PSMD12 mRNA, mean diff between siRNA treatments, log2 [9]: 0.1143; Mean diff, of log2-transformed values, DMSO vs. RUN89 (Scramble control siRNA): -0.3474; NFE2L1 mRNA, mean diff DMSO vs. RUN89, log2 (Scramble control siRNA): 0.6041; NFE2L1 mRNA, mean of log2-transformed values (Scramble control siRNA): 0.616; NFE2L2 mRNA, mean diff DMSO vs. RUN89, log2 (Scramble control siRNA): -0.3474; PSMB7 mRNA, mean diff DMSO vs. RUN89, log2 (Scramble control siRNA): -0.6138; PSMB7 mRNA, mean of log2-transformed values (Scramble control siRNA): 0.6168; PSMD12 mRNA, mean diff DMSO vs. RUN89, log2 (Scramble control siRNA): -2.092; PSMD12 mRNA, mean of log2-transformed values (Scramble control siRNA): 2.093; NFE2L1 mRNA, mean of log2-transformed values (row mean) (mean over all siRNA treatments): -0.5922; NFE2L2 mRNA, mean of log2-transformed values (row mean) (mean over all siRNA treatments): -1.194; PSMB7 mRNA, mean of log2-transformed values (row mean) (mean over all siRNA treatments): 0.3579; PSMD12 mRNA, mean of log2-transformed values (row mean) (mean over all siRNA treatments): 1.792; NFE2L1 mRNA, difference between means (DMSO - RUN89), log2 (over all siRNA treatments): -0.4084; NFE2L2 mRNA, difference between means (DMSO - RUN89), log2 (over all siRNA treatments): -0.02122; PSMB7 mRNA, difference between means (DMSO - RUN89), log2 (over all siRNA treatments): -0.3742; PSMD12 mRNA, difference between means (DMSO - RUN89), log2 (over all siRNA treatments): -1.633
